From paper PMC3269340, “Pharmacokinetics of memantine in rats and mice” (PLoS Currents, 2012)
Several values for one entry are separate records, joined by “and”; a condition that tells them apart may be missing. Equal entries are not always repeated.

Tests used:
human OAT3 = target: T1, human OAT3 (Homo sapiens, UniProt Q8TCC7); test: Indirect uptake transporter assay, OAT3; type: in vitro ADME; parameters: key to Maximal Inhibition: ND: Not Determined (< 50% inhibition); NDe: Not Decisive (Activation or inhibition > 25% of the baseline but no trend observed); NIO: No Interaction Observed (< 20% inhibition)
T1 construct: expressed in transfected cells
T1 sequence (Q8TCC7 1-542): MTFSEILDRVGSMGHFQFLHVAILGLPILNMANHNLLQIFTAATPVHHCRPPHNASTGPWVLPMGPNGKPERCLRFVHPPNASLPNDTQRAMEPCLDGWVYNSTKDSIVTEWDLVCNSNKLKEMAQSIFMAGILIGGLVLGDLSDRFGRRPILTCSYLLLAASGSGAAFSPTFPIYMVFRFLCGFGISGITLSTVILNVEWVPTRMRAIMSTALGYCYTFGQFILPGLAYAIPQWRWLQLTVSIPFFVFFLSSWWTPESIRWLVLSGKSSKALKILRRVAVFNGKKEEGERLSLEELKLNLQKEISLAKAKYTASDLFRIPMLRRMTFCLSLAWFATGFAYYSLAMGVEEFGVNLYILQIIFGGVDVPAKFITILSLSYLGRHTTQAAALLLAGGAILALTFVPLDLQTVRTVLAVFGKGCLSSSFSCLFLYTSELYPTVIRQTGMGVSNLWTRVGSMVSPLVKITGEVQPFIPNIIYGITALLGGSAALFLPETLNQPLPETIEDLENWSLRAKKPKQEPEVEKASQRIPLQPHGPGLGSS
Description: (§1) To determine whether memantine is an inhibitor of the human OATP2B1 (OATP-B), OCT1, OCT2, OAT3, PEPT1, PEPT2 uptake transporters. The standard uptake transporter assay is an indirect, inhibitory-type screening assay, performed with cold test article, which in this case was memantine. It provides information on any interaction (substrate or inhibitor) between selected uptake transporters and memantine that would affect the transport of the reporter compound. […] A radiolabeled reporter substrate is transported into the cells transfected with the selected human uptake transporter, and the inhibitory effect of memantine on the transport of this reporter substrate is measured. Values are presented on a relative scale; 100% defined as transport in the presence of the solvent and without memantine (no inhibition), and 0% defined as transport detected without transporter activity. IC50 is defined as the concentration required to inhibit the transport of the reporter substrate by 50%.
The uptake transporter assay was carried out under the conditions described in the table below, with either CHO cells or MDCKII cells stably expressing the respective uptake transporter.
Duplicate incubations of memantine (0 or DMSO control, 0.41, 1.2, 3.7, 11, 33, 100 and 300 µM) were conducted per concentration on transfected and in parental cells. A reference inhibitor (positive control, duplicate) was incubated in transfected cells.
CHO cells were cultured in a 1:1 mixture of Dubelcco’s Modified Eagle’s Medium (DMEM, Lonza, Allendale, NJ) and Ham's F-12 (F-12, Lonza, Allendale, NJ) and MDCKII cells in DMEM at 37°C in an atmosphere of 95:5 air:CO2. […]
(§2) After the experiment cells were rinsed with 2 x 100µl of Krebs-Henseleit buffer and lysed with 50 µl of 0.1M NaOH. ^3H-estrone-3-sulfate, ^14C-TEA, ^14C-metformin and ^3H-Gly-Sar transport was determined by total radioactivity by transferring an aliquot (35µl) from each well to a vial containing liquid scintillant for analysis.

human OCT1 = target: T2, human OCT1 (Homo sapiens, UniProt O15245); test: Indirect uptake transporter assay, OCT1; type: in vitro ADME
T2 construct: expressed in transfected cells; host or cells: CHO cells
T2 sequence (O15245 1-554): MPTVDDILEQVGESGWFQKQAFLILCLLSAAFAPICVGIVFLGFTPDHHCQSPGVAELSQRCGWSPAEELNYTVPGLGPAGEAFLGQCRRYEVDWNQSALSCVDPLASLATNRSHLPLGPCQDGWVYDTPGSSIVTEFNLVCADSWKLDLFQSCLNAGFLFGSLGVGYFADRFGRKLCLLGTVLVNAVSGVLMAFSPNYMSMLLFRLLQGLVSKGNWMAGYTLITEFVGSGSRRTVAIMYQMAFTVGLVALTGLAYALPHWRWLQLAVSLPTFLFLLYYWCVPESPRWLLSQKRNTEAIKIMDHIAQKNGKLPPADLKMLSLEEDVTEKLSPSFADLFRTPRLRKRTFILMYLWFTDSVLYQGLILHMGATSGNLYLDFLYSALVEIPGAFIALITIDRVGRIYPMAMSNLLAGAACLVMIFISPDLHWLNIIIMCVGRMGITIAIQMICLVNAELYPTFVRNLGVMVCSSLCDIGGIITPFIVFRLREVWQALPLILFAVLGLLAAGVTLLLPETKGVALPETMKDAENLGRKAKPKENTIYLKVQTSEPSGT
Description: as §1, with “50%. […]” for “50%.”
as §2

CC12CC3CC(C)(C1)CC(N)(C3)C2 [memantine]
interaction with OAT3 mediated estrone-3-sulfate transport (human OAT3): did not interact | Maximal Inhibition (human OAT3; OAT3, up to 300 µM): NDe | IC50 (human OAT3; OAT3, probe printed in Table 5: Metformin (2µM), methods and text: E3S): ND (Not Determined (< 50% inhibition)) | Maximal Inhibition (human OCT1; OCT1, up to 300 µM): ~94% | IC50 (human OCT1; OCT1, probe in Table 5: Gly-Sar (1.8 μM), methods and text: TEA): 3.5 µM and 3.51 µM
